15 compounds from US11760744B2, “Fused ring compounds” (Genentech, Inc., priority 2018, dated 2023) can be followed below.

For test [1], the target named is T1, K-Ras G12C (Homo sapiens, UniProt P01116, G12C). The test is described as follows: K-Ras G12C, SOS1, Raf RBD HTRF assay for inhibition of GTP exchange. Set-up: K-Ras G12C (residues 2-188) and SOS1 (residues 564-1049) had N-terminal 6-His; made in house; host or cells: E. coli. Conditions: 18 hours preincubation with K-Ras G12C at room temperature; SOS1-mediated GTP exchange. Type of test: biochemical. As to the method:
K-Ras G12C, SOS1, Raf RBD Homogeneous Time Resolved Fluorescence (HTRF) Assay for Inhibition of GTP Exchange
After 18 hours at room temperature, the SOS1 GTP exchange factor (1.67 nM during exchange, 1.25 nM final) was added to initiate nucleotide exchange to GTP (200 μM during exchange, 150 μM final). The level of GTP exchange was assessed by addition of a Ras binding domain derived from C-Raf and the HTRF detection antibodies Tb-anti-FLAG and D2-anti-his (Cis-Bio) at 50 nM, 1 nM and 12.5 nM, respectively. After 2 hours, the ratio of 665 nm to 615 nm emission with 320 nm excitation was measured on an Envision plate reader (Perkin Elmer).
The final reaction volume was 20 μl in a ProxiPlate-384F Plus (Perkin Elmer), in buffer containing 20 mM HEPES, 150 mM NaCl, 1 mM MgCl2, 0.1% BSA, 0.03% Tween-20 and 1 mM DTT. […] HTRF data are presented below in Table 2.
On the technique in general: TR-FRET usually uses a lanthanide donor and a delayed reading to cut background.
Target sequence in this assay (P01116 2-188 isoform P01116-2 G12C): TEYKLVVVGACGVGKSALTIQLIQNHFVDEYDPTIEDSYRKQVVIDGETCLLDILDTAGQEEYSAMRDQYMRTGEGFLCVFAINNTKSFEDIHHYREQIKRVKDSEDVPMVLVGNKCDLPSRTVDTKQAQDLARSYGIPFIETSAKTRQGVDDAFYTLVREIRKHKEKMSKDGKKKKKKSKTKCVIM

Test [2] deals with T1, K-Ras G12C. The test can be described thus: Western blot assay for in cell alkylation of K-Ras G12C (HCC1171 cells). The format is cell-based. On the set-up: endogenous in cells; host or cells: HCC1171. Conditions: 18 hours at 37° C., 7 point dose response. On the procedure: Western Blot Assay for in Cell Alkylation of K-Ras G12C
HCC1171 cells were maintained in RPMI1640 supplemented with 10% FBS. Cells were plated in a 96-well plate at 20,000 cells/well and the following day compounds were added to the cells. After 18 hours at 37° C., cells were lysed in RIPA buffer (Sigma R0278) with 0.5% SDS and protease/phosphatase inhibitor cocktail. After through mixing to enable complete lysis, the lysates were cleared by centrifugation before 20 μl was transferred from each well and combined with loading buffer and reducing agent. After heating for 10 minutes at 95° C., 15 μl of each sample was loaded onto a 4-20% Tris-Glycine gel and electrophoresed at 110V for 165 minutes in SDS-PAGE running buffer. Gels were transferred to a nitrocellulose membrane, blocked for 1 hour and stained overnight at 4° C. with primary antibody against K-Ras (polyclonal Proteintech 12063-1-AP). The membrane was then washed thoroughly and counterstained with anti-rabbit IRDye 800CW (LI-COR 926-32211) for one hour at room temperature. After final washes, the membrane was imaged on a LI-COR Odyssey CLx at medium resolution. Alkylated K-Ras was visible by an electrophoretic shift from unmodified K-Ras. To quantify this affect, the LICOR software was used to draw a rectangle over alkylated and unalkylated bands for each well and measured the total fluorescent intensity (FI) in each of these bands. The following formula was then used to calculate % alkylation: FI(alkylated)/(FI(alkylated)+FI(unalkylated))*100 for each well.
A 7 point dose response curve was used to determine the IC50 for each compound. Cell alkylation data are presented below in Table 2.
Target sequence in this assay (P01116 1-188 isoform P01116-2 G12C): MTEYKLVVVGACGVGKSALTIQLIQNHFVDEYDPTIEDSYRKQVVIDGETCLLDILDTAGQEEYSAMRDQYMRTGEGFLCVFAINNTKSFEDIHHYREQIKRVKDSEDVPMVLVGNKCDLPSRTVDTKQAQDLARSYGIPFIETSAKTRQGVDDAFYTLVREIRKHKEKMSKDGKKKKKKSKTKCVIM
For orientation: Immunoblotting shows a protein as a band on a membrane.

Molecules are shown by their SMILES.

What is called IC50 is the concentration needed to halve the response being measured. A lower IC50 goes with inhibition by little substance. Broadly, the EC50 is the concentration at which the effect is half-maximal. Read a low EC50 as higher potency in that assay.

Compound `C=CC(=O)N1CCN(c2ncnc3c2CC[C@H](c2c(F)c(N)cc(F)c2C(F)(F)F)C3)CC1` (single isomer, unassigned) [Example 13b] registered an IC50 in test [1] of 84 nM. Further, the midpoint of the response in test [2], the EC50, lay at 690 nM.
Turning to `COc1ccc(CN(Cc2ccc(OC)cc2)c2cc(C)c(I)c([C@@H]3Cc4nc(OC[C@@H]5CCCN5C)nc(N5CCN(C(=O)OC(C)(C)C)C[C@@H]5C)c4C[C@H]3C)c2F)cc1` (single isomer, unassigned) [Example 14a], the half-inhibitory concentration (IC50) in test [1] was over 50000 nM. For the same compound, the concentration giving a half-maximal response (EC50) in test [2] was 1000 nM.
Taken in the same sequence, the figures for `COc1ccc(CN(Cc2ccc(OC)cc2)c2cc(C)c(I)c([C@H]3Cc4nc(OC[C@@H]5CCCN5C)nc(N5CCN(C(=O)OC(C)(C)C)C[C@@H]5C)c4C[C@@H]3C)c2F)cc1` (single isomer, unassigned) [Example 14b] were over 50000 nM and 1000 nM.
In test [1], `C=CC(=O)N1CCN(c2ncnc3c2C[C@@H](C)[C@H](c2c(C)ccc4[nH]ncc24)C3)CC1` (single isomer, unassigned) [Example 15a] came in with an IC50 of 68 nM. Besides, the 50% effective concentration (EC50) in test [2] worked out at 430 nM.
In test [1], `C=CC(=O)N1CCN(c2ncnc3c2C[C@H](C)[C@@H](c2c(C)ccc4[nH]ncc24)C3)CC1` (single isomer, unassigned) [Example 15b] registered an IC50 of 8600 nM. Besides, in test [2], the response was half-maximal at 30000 nM (EC50).
On to `CNC/C=C/C(=O)N1CCN(c2ncnc3c2C[C@@H](C)[C@H](c2c(C)ccc4[nH]ncc24)C3)CC1` (single isomer, unassigned) [Example 19a], for which the 50% inhibitory concentration (IC50) in test [1] stood at 930 nM. The EC50 in test [2] turned out to be 12000 nM.
In test [1], `C=CC(=O)N1CCN(c2nc(OC[C@@H]3CCCN3C)nc3c2C[C@H](C)[C@@H](c2nc(N)cc(C)c2C(F)(F)F)C3)CC1` (single isomer, unassigned) [Example 20b] registered an IC50 of 1400 nM. Besides, in test [2], the response was half-maximal at 2100 nM (EC50).
For `C=CC(=O)N1CCN(c2nc(OC[C@@H]3CCCN3C)nc3c2C[C@H](C)[C@@H](c2nc(N)cc(C)c2C(F)(F)F)C3)[C@@H](C)C1` (single isomer, unassigned) [Example 21a], half-maximal inhibition in test [1] (IC50) required 1100 nM. Moreover, the EC50 in test [2] was 2300 nM.
In test [1], `C=CC(=O)N1CCN(c2nc(OC[C@@H]3CCCN3C)nc3c2C[C@H](C)[C@@H](c2cc(O)cc4ccccc24)C3)[C@@H](C)C1` (single isomer, unassigned) [Example 22a] returned a half-inhibitory concentration (IC50) of 20 nM. In test [2], this compound had an EC50 of 100 nM.
`C=CC(=O)N1CCN(c2nc(OC[C@@H]3CCCN3C)nc3c2C[C@H](C)[C@@H](c2c(C(F)(F)F)ccc(N)c2F)C3)[C@@H](C)C1` (single isomer, unassigned) [Example 23a]: the IC50 in test [1] came to 720 nM. This compound displayed an EC50 in test [2] of 1000 nM.
In the case of `C=CC(=O)N1CCN(c2nc(OC[C@@H]3C[C@@H](F)CN3C)nc3c2C[C@@H](C)[C@H](c2nc(N)cc(C)c2C2CC2)C3)[C@@H](C)C1` (single isomer, unassigned) [Example 24b], in test [1], half-maximal inhibition (IC50) was put at 21 nM. The same compound registered an EC50 in test [2] of 490 nM.
`C=CC(=O)N1CCN(c2ncnc3c2CC[C@H](c2c(F)c(N)cc(C)c2C(F)(F)F)C3)CC1` (single isomer, unassigned) [Example 27a] displayed an IC50 in test [1] of 89 nM. The EC50 in test [2] is 340 nM.
Take `C=CC(=O)N1CCN(c2nc(OC[C@@H]3CCCN3C)nc3c2CC[C@@H](c2cc(O)cc4ccccc24)C3)[C@@H](C)C1` (single isomer, unassigned) [Example 28a]: in test [1], the half-inhibitory concentration (IC50) worked out at 130 nM. This compound also returned an EC50 in test [2] of 1000 nM.
Regarding `C=CC(=O)N1CCN(c2nc(OC[C@@H]3CCCN3C)nc3c2CCC(c2cc(O)cc4ccccc24)C3)[C@@H](CO)C1` (single isomer, unassigned) [Example 29a], half-maximal inhibition in test [1] (IC50) required 530 nM. In test [2], this compound showed an EC50 of 9300 nM.
Turning to `C=CC(=O)N1CCN(c2nc(OC[C@@H]3CCCN3C)nc3c2CCC(c2cc(O)cc4ccccc24)C3)[C@@H](CO)C1` (single isomer, unassigned) [Example 29b], the IC50 in test [1] is under 10 nM. For the same compound, it took 330 nM to reach a half-maximal effect in test [2] (EC50).
